The values below come from US11925616B2, “Compositions comprising urolithin compounds” (Amazentis SA, priority 2015, dated 2024).

Data set [1] in a line: Particle size determinations for urolithin A. The class given is physicochemical. Particulars: for D10 / D50 / D90: Malvern Particle Size analyzer, before and after micronization. How it is done: The particle size of urolithin A was reduced in a controlled manner using an MC50 Spiral Jetmill, using filtered nitrogen, with a feed rate of 240 g/hr, a Venturi pressure of 12 bar, and a mill pressure of 12 bar. Different particle size distributions of urolithin A were determined on a Malvern Particle Size analyzer (Malvern Instruments, UK). Three samples were evaluated in depth.

The next data set in a line: in vivo. The settings on record: male, Sprague-Dawley, rat, po, 25 mg/kg. Also on record: species or system male Sprague-Dawley rats. The method, then:
The solutions for gavage were prepared as follows: 35 mg of urolithin A powder was diluted in 7 ml of 15% DMSO, 0.5% methyl cellulose/0.25% Tween 80 in water, resulting in a 5 mg/ml fine suspension. The DMSO was obtained from BDH, methyl cellulose was obtained from Sigma, and Tween 80 was obtained from Sigma-Aldrich.
Blood was collected from the rats by jugular vein cannulation at different time points, and urolithin A was quantified in the plasma to determine its pharmacokinetic profile following oral gavage of Sample #1, Sample #2, and Sample #3. The study was repeated on three rats for each sample. […]

A further data set has as its system myotubes. The settings on record: in vitro; cited from earlier work.
[2] abbreviates: micronized urolithin used in the formulations of Example 1.

On to `O=c1oc2cc(O)ccc2c2ccc(O)cc12` [Sample #3, Urolithin A], for which, in data set [1], the D10 was 0.597 μm, the D50 is 5.67 μm and the D90 is listed as 40.1 μm. Besides, in “in vivo”, the AUC was 0.0948 µg·h/mL, the “Cmax” value was found to be 0.0174 µg/mL, the “Relative Cmax (% of non-micronized Cmax)” value is on record as 102% and the “Relative bioavailability (% AUC of non-micronized urolithin A)” value stood at 126%. For the same molecule, in “in vivo”, the “Tmax” value is 30 min and the “increase in the AUC in comparison to Sample #1” value came out at 26%.

On to `O=c1oc2cc(O)ccc2c2ccccc12` [Urolithin B], for which the “effect on mean diameter of myotubes” value in the data set on myotubes was “increased the mean diameter of myotubes”.

Take `O=c1oc2cc(O)ccc2c2ccc(O)cc12` [Sample #2, Urolithin A]: in data set [1], the D10 is 0.272 μm, the D50 is 2.17 μm and the D90 is on record as 6.84 μm. In addition, in “in vivo”, the AUC was 0.0962 µg·h/mL, the “Cmax” value stood at 0.037 µg/mL, the “Relative Cmax (% of non-micronized Cmax)” value is given as 216% and the “Relative bioavailability (% AUC of non-micronized urolithin A)” value amounted to 128%. In the data set “in vivo”, the “Tmax” value is 19.8 min, the “fold increase in the Cmax in comparison to Sample #1” value is 2.16 fold, the “increase in the AUC in comparison to Sample #1” value came to 28% and the “relative increase in the Cmax in comparison to Sample #1” value worked out at 116%.

`O=c1oc2cc(O)ccc2c2ccc(O)cc12` [Sample #1, Urolithin A]: in data set [1], the D10 came to 1.03 μm, the D50 is given as 53.4 μm and the D90 came to 365 μm. Further, in the data set “in vivo”, the “Cmax” value was 0.0171 µg/mL, the “Relative Cmax (% of non-micronized Cmax)” value is 100% and the “Relative bioavailability (% AUC of non-micronized urolithin A)” value is 100%. The molecule further came in with an exposure (AUC) in “in vivo” (AUC) of 0.0751 µg·h/mL. Moreover, the Tmax in “in vivo” (Tmax (h)) amounted to 15 min.

`O=c1oc2cc(O)ccc2c2ccc(O)cc12` [Urolithin A]: in data set [1] (setting [2]), the “D10, actual particle size” value is 0.7 μm; the “D50, actual particle size” value amounted to 3.9 μm; the “D90, actual particle size” value amounted to 11.5 μm. Further, the “effect on mean diameter of myotubes” value in the data set with myotubes was “not seen”.
